This is an account of results in US4454158A, “Allyl amine MAO inhibitors” (Merrell Toraude et Compagnie, priority 1981, dated 1984).

Where two headings read alike, the source gives them in different places.

For one data set, the system named is MAO-A and MAO-B. Conditions: literature, cited from earlier work.
The subject of data set [1] is MAO-B versus MAO-A. Briefly: Selectivity of MAO inhibitors - In vitro (14C 5-hydroxytryptamine for MAO-A, 14C phenethylamine for MAO-B). Conditions: for Selectivity (ratio of inhibitory activity against MAO-B versus MAO-A): in vitro, rat brain mitochondria. The format is biochemical, rat. How it is done:
Mitochondria are prepared from rat brain by homogenation in phosphate buffer (0.1 M, pH 7.2) followed by differential centrifugation. The mitochondria are suspended in the same buffer, the test compound is added at the desired concentration, and the system is incubated. […] Christmas, et al, supra).
Selectivity is expressed as the ratio of the inhibitory activity against MAO-B versus the inhibitory activity against MAO-A.

Data set [2] deals with MAO. Description: Inhibition of MAO - In vitro (14C p-tyramine substrate, partially purified rat brain mitochondria). The format is biochemical. Conditions: tested as hydrochloride salt, read-out: IC50 (MAO inhibitory activity - In vitro). An excerpt: (A) The ability of a compound of Formula I or II to inhibit MAO can be determined in vitro by the method of A. Christmas et al, Br. J. Pharmacol. 45, 490 (1972) in partially purified mitochondria from rat brain using ^14 C p-tyramine as the substrate.

For data set [3], the system named is MAO. Briefly: Inhibition of MAO - Ex vivo, rat (14C p-tyramine substrate). The format is in vivo. The settings on record: for % Inhibition of MAO - Brain: 18 hr. On the procedure: (§1) The ability of a compound of Formula I or II to inhibit MAO can be determined ex vivo by the following procedure:
The test compound is administered intraperitoneally (ip), intravenously (iv), or orally (po) to rats or mice and the animals are killed at various times after treatment. […] MAO activity is determined in the homogenates using ^14 C p-tyramine, as the substrate. […] Selectivity can be determined by repeating the above-described test using either ^14 C 5-hydroxytryptamine (for MAO-A) or ^14 C phenethylamine (for MAO-B) as the substrate for determining the % inhibition

In data set [4] the test system is heart rate response to p-tyramine. Description: Cheese effect: potentiation of heart-rate response to p-tyramine in rats. Conditions: rat.
Experimental: (§2) The following test procedure can be employed to assess the potential of a compound of Formula I or II for producing the "cheese effect":
(§3) Rats are administered an intravenous injection of the test compound at various dosage levels, and 30 minutes later the rats are challenged with several intravenous or intraduodenal dodes of p-tyramine. The heart rate response is measured.
Data set [5] concerns MAO. Description: Inhibition of MAO - In vivo: change in levels of endogenous MAO substrates and metabolites in mouse brain. Details: species or system mice. How it is done: The ability of a compound of Formula I or II to inhibit MAO can be determined in vivo in mice according to the following procedure, wherein changes in concentration of the endogenous MAO substrates and the metabolites thereof are assayed.
Mice are given an intraperitoneal injection of the test compound and 2 hours or 16 hours later the animals are killed. The levels of dopamine, dihydroxyphenylacetic acid (DOPAC), 5-hydroxytryptamine (5-HT), and 5-hydroxyindole-3-acetic acid (5-HIAA) in brain homogenates are determined by the method of J. Wagner et al, J. Chromatog. 164, 41 (1979) and P. Bey et al, Br. J. Pharmac., 70, 571 (1980).

Data set [6] relates to MAO. Briefly: Inhibition of MAO - Ex vivo, mouse (14C p-tyramine substrate). The class given is in vivo. The settings on record: 24 hr. On the procedure: as §1
The test compound is administered intraperitoneally (ip), intravenously (iv), or orally (po) to rats or mice and the animals are killed at various times after treatment. The brain, heart, liver, or duodenum is removed and either a crude homogenate or a mitochondrial fraction, described in Example 28, Part A, is prepared. MAO activity is determined in the homogenates using ^14 C p-tyramine, as the substrate. Table III gives the results of the testing of certain compounds according to the above-described procedure. Selectivity can be determined by repeating the above-described test using either ^14 C 5-hydroxytryptamine (for MAO-A) or ^14 C phenethylamine (for MAO-B) as the substrate for determining the % inhibition

The subject of data set [7] is MAO. Briefly: Time-dependence and reversibility of MAO inhibition (rat brain mitochondria, 14C p-tyramine). The format is biochemical. The settings on record: phosphate buffer pH 7.2, 14C p-tyramine. How it is done: (B) The compounds of Formula I or II can be tested to determine whether or not the MAO inhibition follows time-dependent kinetics by the procedure described below:
Mitochondria are prepared from rat brain by homogenation in phosphate buffer (0.1 M, pH 7.2) followed by differential centrifugation. The mitochondria are suspended in the same buffer, the test compound is added at the desired concentration, and the system is incubated. At different time intervals, aliquots are taken and MAO activity is measured using ^14 C p-tyramine (a mixed substrate) as the substrate (See A. Christmas, et al, supra). When the compounds shown in Table I were tested according to the above-described procedure, the MAO inhibitory activity increased as a function of time of incubation. The initial rate of decrease of activity increased with increasing concentration of inhibitor.

The test system of the next data set is Parkinson's disease. The settings on record: literature; cited from earlier work.
Another data set has as its system depression. The settings on record: literature; cited from earlier work.
In a further data set the test system is cheese effect. The settings on record: low dosages; literature; cited from earlier work.
In data set [8] the test system is heart rate response to p-tyramine. The settings on record: rat, in vivo, iv.
Experimental: as §2, §3
For data set [9], the system named is MAO-B versus MAO-A. Conditions: literature figure; cited from earlier work.

Regarding `N[C@@H]1C[C@H]1c1ccccc1` (relative stereo) [tranyclcypromine], in the data set on MAO-A and MAO-B, the “preferential inhibition of MAO-A or MAO-B (in words)” value (“preferential inhibition” for short) is “not preferential in their action upon MAO”.

Broadly, the IC50 is the concentration that gives 50% inhibition. For `COc1ccc(/C(=C\F)CN)cc1OC` [(E)-2-(3',4'-Dimethoxy)phenyl-3-fluoroallylamine], in the data set on MAO-B versus MAO-A [1], the “selectivity for MAO-B as compared to MAO-A (in words)” value was “marked selectivity for MAO-B as compared to MAO-A” and the “Selectivity (ratio of inhibitory activity against MAO-B versus MAO-A)” value is 1000. For the same compound, the “selectivity for MAO-B as compared to MAO-A (in words)” value in the data set with MAO-B versus MAO-A [1] (listed as (E)-2-(3',4'-dimethoxyphenyl)-3-fluoroallylamine) was “selective inhibitors of MAO-B”. The IC50 in the data set with MAO [2] was 2500 nM. In addition, in the data set on MAO [3] (0.5 mg/kg po), the “% Inhibition of MAO - Brain” value came to 79%. Further, in the data set with MAO [3] (1.0 mg/kg iv, 2 hr), the “% Inhibition of MAO - Duodenum” value was determined as 40%, the “% Inhibition of MAO - Heart” value is listed as 17% and the “% Inhibition of MAO - Liver” value amounted to 58%. Further, in the data set on MAO [3] (10.0 mg/kg po), the “% Inhibition of MAO - Brain” value stood at 93%. For the same compound, the “Potentiation of heart-rate response to p-tyramine” value (“Potentiation … to p-tyramine” below) in [4] (dose 1.0 (iv), p-tyramine i.d.) is recorded as 2.5 fold. Besides, the “Potentiation … to p-tyramine” value in data set [4] (dose 1.0 (iv), p-tyramine i.v.) was determined as 2.3 fold. Also, the “risk of producing the cheese effect (in words)” value in data set [4] (in vivo) is reported as “significantly decreased risk”. In addition, in the data set on MAO [5] (10 mg/kg ip, 16 hr), the “% Change (compared to control) - 5-HIAA” value is on record as -8%, the “% Change (compared to control) - 5-HT” value is given as “+31%”, the “% Change (compared to control) - DOPAC” value is on record as -62% and the “% Change (compared to control) - Dopamine” value (from here on “% Change … - Dopamine”) is on record as “+18%”. Besides, in the data set on MAO [5] (50 mg/kg ip, 16 hr), the “% Change (compared to control) - 5-HIAA” value is -32%, the “% Change (compared to control) - 5-HT” value is “+122%”, the “% Change (compared to control) - DOPAC” value is given as -85% and the “% Change … - Dopamine” value was “+22%”.

Turning to `NC/C(=C/F)c1ccccc1` [(E)-2-phenyl-3-fluoroallylamine, (E)-2-Phenyl-3-fluoroallylamine], in the data set on MAO-B versus MAO-A [1], the “Selectivity (ratio of inhibitory activity against MAO-B versus MAO-A)” value is recorded as 10. The IC50 in the data set with MAO [2] is 700 nM. Also, in the data set on MAO [6] (0.5 mg/kg ip), the “% Inhibition of MAO - Brain” value came to 45% and the “% Inhibition of MAO - Heart” value was 91%. Further, in the data set on MAO [6] (1.0 mg/kg ip), the “% Inhibition of MAO - Brain” value was determined as 68% and the “% Inhibition of MAO - Heart” value was determined as 97%. Further, in the data set on MAO [3] (0.1 mg/kg iv, 24 hr), the “% Inhibition of MAO - Duodenum” value is recorded as 67%, the “% Inhibition of MAO - Heart” value turned out to be 85% and the “% Inhibition of MAO - Liver” value amounted to 48%. For the same compound, in [4] (dose 0.1 (iv), p-tyramine i.d.), the “Potentiation … to p-tyramine” value was determined as 9.1 fold. In addition, in data set [4] (dose 0.1 (iv), p-tyramine i.v.), the “Potentiation … to p-tyramine” value is 8.4 fold. Also, in the data set on MAO [5] (1 mg/kg ip, 2 hr), the “% Change (compared to control) - 5-HIAA” value is -35%, the “% Change (compared to control) - 5-HT” value was “+41%”, the “% Change (compared to control) - DOPAC” value is listed as -67% and the “% Change … - Dopamine” value is reported as “+15%”. Also, in the data set on MAO [5] (10 mg/kg ip, 2 hr), the “% Change (compared to control) - 5-HIAA” value is -90%, the “% Change (compared to control) - 5-HT” value is reported as “+90%”, the “% Change (compared to control) - DOPAC” value is on record as -92% and the “% Change … - Dopamine” value is on record as “+32%”. In addition, in the data set on MAO [5] (100 mg/kg ip, 2 hr), the “% Change (compared to control) - 5-HIAA” value was -91%, the “% Change (compared to control) - 5-HT” value was “+96%”, the “% Change (compared to control) - DOPAC” value is recorded as -95% and the “% Change … - Dopamine” value was “+19%”.

With `NC/C(=C\Cl)c1ccccc1` [(Z)-2-phenyl-3-chloroallylamine, (Z)-2-Phenyl-3-chloroallylamine], the time-dependent inhibitory kinetics result with MAO [7] is “did not show time-dependent inhibitory kinetics”. For the same compound, the IC50 in the data set with MAO [2] amounted to 500000 nM.

On to `C#CCN(C)[C@H](C)Cc1ccccc1` [L-deprenyl, reference compound], for which the “potentiation of L-DOPA in Parkinson's disease (in words)” value with Parkinson's disease is listed as “potentiate L-DOPA for the treatment of Parkinson's disease without producing peripheral side effects”. In addition, in the data set with MAO [3] (1.0 mg/kg po, 2 hr), the “% Inhibition of MAO - Duodenum” value stood at 62% and the “% Inhibition of MAO - Heart” value came out at 48%. Also, in the data set on depression, the “clinical effectiveness as antidepressant (in words)” value (shortened to “clinical effectiveness”) is “clinically effective antidepressant agents”. Moreover, the “Potentiation … to p-tyramine” value in data set [4] (dose 0.1 (iv), p-tyramine i.d.) is “no effect”. Also, the “Potentiation … to p-tyramine” value in [4] (dose 0.1 (iv), p-tyramine i.v.) is given as 1.3 fold. In addition, in data set [4] (dose 1.0 (iv), p-tyramine i.d.), the “Potentiation … to p-tyramine” value is on record as 2.1 fold. Also, in data set [4] (dose 1.0 (iv), p-tyramine i.v.), the “Potentiation … to p-tyramine” value is recorded as 2.2 fold. Further, in the data set on MAO [5] (10 mg/kg ip, 2 hr), the “% Change (compared to control) - 5-HIAA” value is reported as “+9%”, the “% Change (compared to control) - 5-HT” value is “+18%”, the “% Change (compared to control) - DOPAC” value is given as -21% and the “% Change … - Dopamine” value is reported as “+10%”. Moreover, the “cheese effect (in words)” value with cheese effect was “is not observed at the low dosages where preferential inhibition of MAO-B occurs”.

For the compound `C#CCN(C)CCCOc1ccc(Cl)cc1Cl` [clorgyline, reference compound], in the data set with MAO [2], the IC50 is 100 nM. For the same compound, the “% Inhibition of MAO - Duodenum” value in the data set on MAO [3] (0.1 mg/kg iv, 2 hr) was 87%. Also, the “% Inhibition of MAO - Heart” value in the data set on MAO [3] (0.1 mg/kg iv, 2 hr) was determined as 84%. In addition, the results for the “% Inhibition of MAO - Brain” value in the data set with MAO [3] (1.0 mg/kg po) and with MAO [3] (5.0 mg/kg po) were 20% and 64%, respectively. Further, the “clinical effectiveness” value with depression was “clinically effective antidepressant agents”. The “Potentiation … to p-tyramine” value amounted to 5.6 fold in [4] (dose 0.1 (iv), p-tyramine i.d.) and 5.2 fold in data set [8].

Take `Cc1cc(C(=O)NNCc2ccccc2)no1` [isocarboxazid]: in the data set with MAO-A and MAO-B, the “preferential inhibition” value is on record as “not preferential in their action upon MAO”.

For the compound `C#CCN(C)Cc1ccccc1` [pargyline], the “Selectivity (ratio of inhibitory activity against MAO-B versus MAO-A)” value in the data set with MAO-B versus MAO-A [9] is 10. For the same compound, in the data set with MAO [2], the IC50 was 2000 nM. Further, the “clinical effectiveness” value in the data set on depression is listed as “clinically effective antidepressant agents”. Also, the “preferential inhibition” value with MAO-A and MAO-B is recorded as “MAO-B is preferentially inhibited”. Moreover, the “dose-dependence of MAO selectivity (in words)” value with MAO-A and MAO-B (lower vs higher dosages) was “selective inhibitors at lower dosages, but are not selective inhibitors at higher dosages”.

With `NNCCc1ccccc1` [phenelzine], the “preferential inhibition” value in the data set on MAO-A and MAO-B is recorded as “not preferential in their action upon MAO”.
